The values below come from patent US20250215029A1 (Recludix Pharma, Inc., priority 2022, published 2025).

T1 sequence (P40763 whole entry): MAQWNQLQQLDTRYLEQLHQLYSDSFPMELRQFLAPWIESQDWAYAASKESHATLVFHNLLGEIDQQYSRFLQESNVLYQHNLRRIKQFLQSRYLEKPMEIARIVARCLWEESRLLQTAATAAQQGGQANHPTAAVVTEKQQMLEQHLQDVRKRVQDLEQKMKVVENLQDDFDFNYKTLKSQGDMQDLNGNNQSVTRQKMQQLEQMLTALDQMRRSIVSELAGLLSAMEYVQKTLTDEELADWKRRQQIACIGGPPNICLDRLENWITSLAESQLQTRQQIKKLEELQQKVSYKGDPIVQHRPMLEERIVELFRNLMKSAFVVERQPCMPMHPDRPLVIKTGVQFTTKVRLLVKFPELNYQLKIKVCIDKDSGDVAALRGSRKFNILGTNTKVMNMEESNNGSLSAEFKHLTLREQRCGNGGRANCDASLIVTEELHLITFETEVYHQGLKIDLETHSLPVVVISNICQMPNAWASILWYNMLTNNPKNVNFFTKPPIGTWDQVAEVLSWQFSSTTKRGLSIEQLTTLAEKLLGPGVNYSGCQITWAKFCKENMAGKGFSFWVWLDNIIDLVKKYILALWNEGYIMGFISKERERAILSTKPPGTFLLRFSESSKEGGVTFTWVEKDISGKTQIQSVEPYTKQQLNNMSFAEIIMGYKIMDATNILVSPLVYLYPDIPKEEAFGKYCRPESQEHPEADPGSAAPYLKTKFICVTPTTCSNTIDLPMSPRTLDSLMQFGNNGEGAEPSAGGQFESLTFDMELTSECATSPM

The first assay has as its target T1, pY705-STAT3 in PBMC (Homo sapiens, UniProt P40763).
T1 construct: Cryopreserved Peripheral Blood Mononuclear Cells (PBMC) are from AllCells; host or cells: cryopreserved PBMC
As to the kind of experiment: MSD-pSTAT-PBMC Assay (pSTAT3, IL-6 stimulated). The format is cell-based. Particulars: PBMC, compound 3 hrs, then 10 ng/mL IL-6 for 10 min; Table 115; read-out: STAT3. The procedure, abridged:
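pY705-STAT3 was detected electrochemiluminescently on total-STAT3 capture plates, using lysates of human PBMCs given compound for 3 h and then IL-6 (10 ng/mL, 10 min). Values were background-subtracted against unstimulated wells and set relative to DMSO. IC50 was fitted with variable slope.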
For `CCCOC(=O)[C@H](C)NP(=O)(Cc1ccc2sc(C(=O)N[C@H]3CCC[C@H]4CC[C@@H](C(=O)N5CC(c6cncnc6N(C)C)C5)N4C3=O)cc2c1)Oc1ccccc1` (stereo partly drawn) [Compound 1070, propyl (((2-(((3S,6S,9aS)-3-(3-(4-(dimethylamino)pyrimidin-5-yl)azetidine-1-carbonyl)-5-oxooctahydro-1H-pyrrolo[1,2-a]azepin-6-yl)carbamoyl)benzo [b]thiophen-5-yl)methyl)(phenoxy)phosphoryl)-L-alaninate], the IC50 was less than 100 nM.

`CCCOC(=O)[C@H](C)NP(=O)(Oc1ccccc1)[C@@H](F)c1ccc2sc(C(=O)N[C@H]3CCC[C@H]4CC[C@@H](C(=O)N5CC(c6cncnc6N6CC[C@H]6COC)C5)N4C3=O)cc2c1` (stereo partly drawn) [Compound 1071, propyl (((R)-fluoro(2-(((3S,6S,9aS)-3-(3-(4-((S)-2-(methoxymethyl)azetidin-1-yl)pyrimidin-5-yl)azetidine-1-carbonyl)-5-oxooctahydro-1H-pyrrolo[1,2-a]azepin-6-yl)carbamoyl)benzo [b]thiophen-5-yl)methyl)(phenoxy)phosphoryl)-L-alaninate]: the IC50 is less than 100 nM.

For `CCCOC(=O)[C@H](C)NP(=O)(Cc1ccc2sc(C(=O)N[C@H]3CCC[C@H]4CC[C@@H](C(=O)N5CC(c6cncnc6N6CC[C@H]6COC)C5)N4C3=O)cc2c1)Oc1ccccc1` (stereo partly drawn) [Compound 1072, propyl (((2-(((3S,6S,9aS)-3-(3-(4-((S)-2-(methoxymethyl)azetidin-1-yl)pyrimidin-5-yl)azetidine-1-carbonyl)-5-oxooctahydro-1H-pyrrolo[1,2-a]azepin-6-yl)carbamoyl)benzo [b]thiophen-5-yl)methyl)(phenoxy)phosphoryl)-L-alaninate], the IC50 is less than 100 nM.

`CCCOC(=O)[C@H](C)NP(=O)(Oc1ccccc1)[C@@H](F)c1ccc2sc(C(=O)N[C@H]3CCC[C@H]4CC[C@@H](C(=O)N5CC(c6cncc(F)c6OC)C5)N4C3=O)cc2c1` (stereo partly drawn) [Compound 1073, propyl (((R)-fluoro(2-(((3S,6S,9aS)-3-(3-(5-fluoro-4-methoxypyridin-3-yl)azetidine-1-carbonyl)-5-oxooctahydro-1H-pyrrolo[1,2-a]azepin-6-yl)carbamoyl)benzo [b]thiophen-5-yl)methyl)(phenoxy)phosphoryl)-L-alaninate]: the IC50 was 100 to 1000 nM.

With `CCCOC(=O)[C@H](C)NP(=O)(Cc1ccc2sc(C(=O)N[C@H]3C[C@@H](C)C[C@H]4CC[C@@H](C(=O)N5CC(c6cncnc6N6CCC6)C5)N4C3=O)cc2c1)Oc1ccccc1` (stereo partly drawn) [Compound 1074, propyl (((2-(((3S,6S,8R,9aR)-3-(3-(4-(azetidin-1-yl)pyrimidin-5-yl)azetidine-1-carbonyl)-8-methyl-5-oxooctahydro-1H-pyrrolo[1,2-a]azepin-6-yl)carbamoyl)benzo [b]thiophen-5-yl)methyl)(phenoxy)phosphoryl)-L-alaninate], the IC50 was less than 100 nM.

As to `CCCOC(=O)[C@H](C)NP(=O)(Oc1ccccc1)[C@@H](F)c1ccc2sc(C(=O)N[C@H]3CCC[C@H]4CC[C@@H](C(=O)N5CC(c6cncnc6N6CCC6)C5)N4C3=O)cc2c1` (some centres unmarked) [Compound 1075], the IC50 was less than 100 nM.

As for `CCCOC(=O)[C@H](C)NP(=O)(Oc1ccccc1)[C@H](F)c1ccc2sc(C(=O)N[C@H]3CCC[C@H]4CC[C@@H](C(=O)N5CC(c6cncnc6N6CCC6)C5)N4C3=O)cc2c1` (some centres unmarked) [Compound 1076], the IC50 is less than 100 nM.

Turning to `CCCOC(=O)[C@H](C)NP(=O)(Oc1ccccc1)[C@@H](F)c1ccc2sc(C(=O)N[C@H]3C[C@@H](C)C[C@H]4CC[C@@H](C(=O)N5CC(c6cncnc6N6CCC6)C5)N4C3=O)cc2c1` (some centres unmarked) [Compound 1077], the IC50 was less than 100 nM.

For the compound `CCCOC(=O)[C@H](C)NP(=O)(Oc1ccccc1)[C@H](F)c1ccc2sc(C(=O)N[C@H]3C[C@@H](C)C[C@H]4CC[C@@H](C(=O)N5CC(c6cncnc6N6CCC6)C5)N4C3=O)cc2c1` (some centres unmarked) [Compound 1078], the IC50 is less than 100 nM.

Regarding `CC(C)CC(=O)SCCOP(=O)(Cc1ccc2sc(C(=O)N[C@H]3CCC[C@H]4CC[C@@H](C(=O)N5CC(c6cccnc6)C5)N4C3=O)cc2c1)OCCSC(=O)CC(C)C` [Compound 1084, S,S′-(((((2-(((3S,6S,9aS)-5-oxo-3-(3-(pyridin-3-yl)azetidine-1-carbonyl)octahydro-1H-pyrrolo[1,2-a]azepin-6-yl)carbamoyl)benzo [b]thiophen-5-yl)methyl)phosphoryl)bis(oxy))bis(ethane-2,1-diyl)) bis(3-methylbutanethioate)], the IC50 was 100 to 1000 nM.

In the case of `CC(C)CC(=O)SCCOP(=O)(OCOC(=O)OC1COC1)C(F)(F)c1ccc2sc(C(=O)N[C@H]3CCC[C@H]4CC[C@@H](C(=O)N5CC(c6ncccn6)C5)N4C3=O)cc2c1` (stereo partly drawn) [Compound 1095, S-(2-(((difluoro(2-(((3S,6S,9aS)-5-oxo-3-(3-(pyrimidin-2-yl)azetidine-1-carbonyl)octahydro-1H-pyrrolo[1,2-a]azepin-6-yl)carbamoyl)benzo [b]thiophen-5-yl)methyl) ((((oxetan-3-yloxy)carbonyl)oxy)methoxy)phosphoryl)oxy)ethyl) 3-methyl-butanethioate], the IC50 is less than 100 nM.

`CC(C)CC(=O)SCCOP(=O)(OCOC(=O)OC(C)C)[C@H](F)c1ccc2sc(C(=O)N[C@H]3CCC[C@H]4CC[C@@H](C(=O)N5CC(c6cccnc6)C5)N4C3=O)cc2c1` (stereo partly drawn) [Compound 1096, S-(2-((((S)-fluoro(2-(((3S,6S,9aS)-5-oxo-3-(3-(pyridin-3-yl)azetidine-1-carbonyl)octahydro-1H-pyrrolo[1,2-a]azepin-6-yl)carbamoyl)benzo [b]thiophen-5-yl)methyl) (((isopropoxy-carbonyl)oxy)methoxy)phosphoryl)oxy)ethyl) 3-methylbutanethioate]: the IC50 is less than 100 nM.

`CC(C)CC(=O)SCCOP(=O)(OCOC(=O)O[C@@H]1CCOC1)C(F)(F)c1ccc2sc(C(=O)N[C@H]3CCC[C@H]4CC[C@@H](C(=O)N5CC(c6ncccn6)C5)N4C3=O)cc2c1` (stereo partly drawn) [Compound 1098, S-(2-(((difluoro(2-(((3S,6S,9aS)-5-oxo-3-(3-(pyrimidin-2-yl)azetidine-1-carbonyl)octahydro-1H-pyrrolo[1,2-a]azepin-6-yl)carbamoyl)benzo [b]thiophen-5-yl)methyl)((((((R)-tetrahydrofuran-3-yl)oxy)carbonyl)oxy)methoxy)phosphoryl)oxy)ethyl) 3-methylbutanethioate]: the IC50 is less than 100 nM.

The assay is the same for the next values; noted with them: STAT3, PBMC, compound 3 hrs, then 10 ng/mL IL-6 for 10 min; Table 115.
Compound `CCCOC(=O)[C@H](C)NP(=O)(Cc1ccc2sc(C(=O)N[C@H]3C[C@H](C)C[C@H]4CC[C@@H](C(=O)N5CC(c6cnccc6N(C)C)C5)N4C3=O)cc2c1)Oc1ccccc1` (stereo partly drawn) [Compound 1079, propyl (((2-(((3S,6S,8S,9aR)-3-(3-(4-(dimethylamino)pyridin-3-yl)azetidine-1-carbonyl)-8-methyl-5-oxooctahydro-1H-pyrrolo[1,2-a]azepin-6-yl)carbamoyl)benzo [b]thiophen-5-yl)methyl)(phenoxy)phosphoryl)-L-alaninate] came in with an IC50 of less than 100 nM.
